Test results published in US12371454B2, “Cyclic peptide compound having Kras inhibitory action” (priority 2019, dated 2025).
Starred links: 1 amine or outer side, 2 acyl side, 3 side chain; linkers in the order of their positions; H or OH if unused. Positions of bridges follow the written chain, without caps; N, C: chain ends. Non-standard residues stand in square brackets, D forms with d. Residues, ends and D or L forms follow the SMILES beside them. *: point of attachment. hPhe(3,5-F2-4-CF3) = N[C@@H](CCc1cc(F)c(C(F)(F)F)c(F)c1)C(=O)O; hPhe(3-Cl-4-CF3) = N[C@@H](CCc1ccc(C(F)(F)F)c(Cl)c1)C(=O)O; NMePhe(4-CF3) = CN[C@@H](Cc1ccc(C(F)(F)F)cc1)C(=O)O; X50 = O=C([C@H](Cc1cc(F)cc(Br)c1)N[*:1])[*:2]; NEtPhe(4-Me) = CCN[C@@H](Cc1ccc(C)cc1)C(=O)O; NMePhe(4-Cl) = CN[C@@H](Cc1ccc(Cl)cc1)C(=O)O; NMePhe(4-Me) = CN[C@@H](Cc1ccc(C)cc1)C(=O)O; NMedβ3hAla = C[C@H](CC(=O)[*:2])N(C)[*:1]; Phe(3-Br) = N[C@@H](Cc1cccc(Br)c1)C(=O)O; NMeGly(cPent) = CN[C@H](C(=O)O)C1CCCC1; NMeY = CN[C@@H](Cc1ccc(O)cc1)C(=O)O; NMeCha = CN[C@@H](CC1CCCCC1)C(=O)O; NMeD = CN[C@@H](CC(=O)O)C(=O)O; NMeL = CN[C@@H](CC(C)C)C(=O)O; NMeAbu = CC[C@H](NC)C(=O)O; Morpholide = C1CN(*)CCO1; NMeA = CN[C@@H](C)C(=O)O; NMeAib = CNC(C)(C)C(=O)O; Nle = CCCC[C@H](N)C(=O)O; Piperidide = C1CCN(*)CC1; dNMeA = CN[C@H](C)C(=O)O; Ac5c = NC1(C(=O)O)CCCC1; Aze = O=C(O)[C@@H]1CCN1; Sar = CNCC(=O)O

Biological target: T1, Kras and SOS1 (biotin-tagged human Kras loaded with GDP, His-tagged human SOS1) (Homo sapiens, UniProt P01116, G12D)
T1 construct: made in house; host or cells: E. coli (stated for Kras only)
Assay: Protein-protein interaction inhibition between Kras and SOS1 (KrasGl2D-SOS PPI) using AlphaScreen
Assay type: binding
Conditions: AlphaScreen; biotin-tagged human Kras loaded with GDP, His-tagged human SOS1; read-out: KRAS G12D-SOS PPI IC50
Summary of the method: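 Read-out is acceptor-bead light at 520-620 nm, arising when 680 nm-irradiated nickel donor beads pass singlet oxygen to streptavidin acceptors. The bead pair links His-tagged SOS1 with biotin-tagged, GDP-bound Kras from E. coli.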

T1 sequence (P01116 1-188 isoform P01116-2 G12D): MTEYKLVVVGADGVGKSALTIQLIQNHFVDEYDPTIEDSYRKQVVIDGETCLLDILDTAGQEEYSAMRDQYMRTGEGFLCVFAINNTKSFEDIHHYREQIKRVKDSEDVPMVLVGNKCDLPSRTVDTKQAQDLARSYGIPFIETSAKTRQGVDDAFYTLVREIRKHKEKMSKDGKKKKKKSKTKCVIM

Row | SMILES | IC50 [nM]
1 | CC[C@H](C)[C@@H]1NC(=O)[C@H](CC(C)C)N(C)C(=O)C[C@@H](C(=O)N2CCOCC2)N(C)C(=O)[C@H](C2CCCC2)N(C)C(=O)C2(CCCC2)NC(=O)[C@@H]2CCCN2C(=O)[C@H](CCc2cc(F)c(C(F)(F)F)c(F)c2)NC(=O)CN(C)C(=O)[C@H](Cc2ccc(C)cc2)N(CC)C(=O)[C@@H]2CCN2C(=O)[C@H](C)N(C)C1=O [Compound 1368] ([NMeL]I[NMeA][Aze][NEtPhe(4-Me)][Sar][hPhe(3,5-F2-4-CF3)]P[Ac5c][NMeGly(cPent)][NMeD]-Morpholide; lactam N-11) | 0.67
2 | CCCC[C@@H]1NC(=O)[C@H](Cc2cc(F)cc(Br)c2)NC(=O)CN(C)C(=O)[C@H](Cc2ccc(OC)cc2)N(C)C(=O)[C@@H]2CCN2C(=O)[C@H](C)N(C)C(=O)[C@H]([C@@H](C)CC)NC(=O)[C@H](CC)N(C)C(=O)C[C@@H](C(=O)N2CCCCC2)N(C)C(=O)[C@H](CC(C)C)NC(=O)C(C)(C)N(C)C1=O [Compound 1372] ([NMeAbu]I[NMeA][Aze][NMeY](Me)[Sar][X50][Nle][NMeAib]L[NMeD]-Piperidide; lactam N-11) | 17
3 | CC[C@H](C)[C@@H]1NC(=O)[C@H](C)N(C)C(=O)C[C@@H](C)N(C)C(=O)[C@H](CC(C)C)NC(=O)C(C)(C)N(C)C(=O)[C@H](CC(C)C)NC(=O)[C@H](CCc2ccc(C(F)(F)F)c(Cl)c2)NC(=O)CN(C)C(=O)[C@H](Cc2ccc(C)cc2)N(C)C(=O)[C@@H]2CCN2C(=O)CN(C)C1=O [Compound 1377] (cyclo([Aze][NMePhe(4-Me)][Sar][hPhe(3-Cl-4-CF3)]L[NMeAib]L[NMedβ3hAla][NMeA]I[Sar])) | 5.8
4 | CC[C@H](C)[C@@H]1NC(=O)[C@H](C)N(C)C(=O)C[C@@H](C)N(C)C(=O)[C@H](CC(C)C)NC(=O)C(C)(C)N(C)C(=O)[C@H](CC(C)C)NC(=O)[C@H](CCc2ccc(C(F)(F)F)c(Cl)c2)NC(=O)[C@@H](C)N(C)C(=O)[C@H](CC2CCCCC2)N(C)C(=O)[C@@H]2CCN2C(=O)CN(C)C1=O [Compound 1378] (cyclo([Aze][NMeCha][dNMeA][hPhe(3-Cl-4-CF3)]L[NMeAib]L[NMedβ3hAla][NMeA]I[Sar])) | 380
5 | CC[C@H](C)[C@@H]1NC(=O)[C@H](CC(C)C)N(C)C(=O)C[C@@H](C)N(C)C(=O)[C@H](CC(C)C)NC(=O)C(C)(C)N(C)C(=O)[C@H](CC(C)C)NC(=O)[C@H](CCc2ccc(C(F)(F)F)c(Cl)c2)NC(=O)CN(C)C(=O)[C@H](Cc2ccc(C)cc2)N(C)C(=O)[C@@H]2CCN2C(=O)[C@H](C)N(C)C1=O [Compound 1379] (cyclo([Aze][NMePhe(4-Me)][Sar][hPhe(3-Cl-4-CF3)]L[NMeAib]L[NMedβ3hAla][NMeL]I[NMeA])) | 64
6 | CC[C@H](C)[C@@H]1NC(=O)[C@H](C)N(C)C(=O)C[C@@H](C)N(C)C(=O)[C@H](CC(C)C)NC(=O)C(C)(C)N(C)C(=O)[C@H](CC(C)C)NC(=O)[C@H](CCc2ccc(C(F)(F)F)c(Cl)c2)NC(=O)[C@@H](C)N(C)C(=O)[C@H](Cc2ccc(C)cc2)N(C)C(=O)[C@@H]2CCN2C(=O)CN(C)C1=O [Compound 1382] (cyclo([Aze][NMePhe(4-Me)][dNMeA][hPhe(3-Cl-4-CF3)]L[NMeAib]L[NMedβ3hAla][NMeA]I[Sar])) | 230
7 | CC[C@H](C)[C@@H]1NC(=O)[C@H](C)N(C)C(=O)C[C@@H](C)N(C)C(=O)[C@H](CC(C)C)NC(=O)C(C)(C)N(C)C(=O)[C@H](CC(C)C)NC(=O)[C@H](CCc2ccc(C(F)(F)F)c(Cl)c2)NC(=O)[C@@H](C)N(C)C(=O)[C@H](Cc2ccc(C(F)(F)F)cc2)N(C)C(=O)[C@@H]2CCN2C(=O)CN(C)C1=O [Compound 1383] (cyclo([Aze][NMePhe(4-CF3)][dNMeA][hPhe(3-Cl-4-CF3)]L[NMeAib]L[NMedβ3hAla][NMeA]I[Sar])) | 130
8 | CC[C@H](C)[C@@H]1NC(=O)[C@H](CC(C)C)N(C)C(=O)C[C@@H](C)N(C)C(=O)[C@H](CC(C)C)NC(=O)C(C)(C)N(C)C(=O)[C@H](CC(C)C)NC(=O)[C@H](CCc2ccc(C(F)(F)F)c(Cl)c2)NC(=O)CN(C)C(=O)[C@H](Cc2ccc(C)cc2)N(C)C(=O)[C@@H]2CCN2C(=O)CN(C)C1=O [Compound 1386] (cyclo([Aze][NMePhe(4-Me)][Sar][hPhe(3-Cl-4-CF3)]L[NMeAib]L[NMedβ3hAla][NMeL]I[Sar])) | 10
9 | CC[C@H](C)[C@@H]1NC(=O)[C@H](C)N(C)C(=O)C[C@@H](C)N(C)C(=O)[C@H](CC(C)C)NC(=O)C(C)(C)N(C)C(=O)[C@H](CC(C)C)NC(=O)[C@H](CCc2ccc(C(F)(F)F)c(Cl)c2)NC(=O)CN(C)C(=O)[C@H](CC2CCCCC2)N(C)C(=O)[C@@H]2CCN2C(=O)CN(C)C1=O [Compound 1387] (cyclo([Aze][NMeCha][Sar][hPhe(3-Cl-4-CF3)]L[NMeAib]L[NMedβ3hAla][NMeA]I[Sar])) | 14
10 | CC[C@H](C)[C@@H]1NC(=O)[C@H](C)N(C)C(=O)C[C@@H](C)N(C)C(=O)[C@H](CC(C)C)NC(=O)C(C)(C)N(C)C(=O)[C@H](CC(C)C)NC(=O)[C@H](CCc2ccc(C(F)(F)F)c(Cl)c2)NC(=O)CN(C)C(=O)[C@H](CC2CCCCC2)N(C)C(=O)[C@@H]2CCN2C(=O)[C@H](C)N(C)C1=O [Compound 1391] (cyclo([Aze][NMeCha][Sar][hPhe(3-Cl-4-CF3)]L[NMeAib]L[NMedβ3hAla][NMeA]I[NMeA])) | 65
11 | CC[C@H](C)[C@@H]1NC(=O)[C@H](C)N(C)C(=O)C[C@@H](C)N(C)C(=O)[C@H](CC(C)C)NC(=O)C(C)(C)N(C)C(=O)[C@H](CC(C)C)NC(=O)[C@H](CCc2ccc(C(F)(F)F)c(Cl)c2)NC(=O)CN(C)C(=O)[C@H](Cc2ccc(C(F)(F)F)cc2)N(C)C(=O)[C@@H]2CCN2C(=O)CN(C)C1=O [Compound 1392] (cyclo([Aze][NMePhe(4-CF3)][Sar][hPhe(3-Cl-4-CF3)]L[NMeAib]L[NMedβ3hAla][NMeA]I[Sar])) | 28
12 | CC[C@H](C)[C@@H]1NC(=O)[C@H](CC(C)C)N(C)C(=O)C[C@@H](C)N(C)C(=O)[C@H](CC(C)C)NC(=O)C(C)(C)N(C)C(=O)[C@H](CC(C)C)NC(=O)[C@H](CCc2ccc(C(F)(F)F)c(Cl)c2)NC(=O)[C@@H](C)N(C)C(=O)[C@H](Cc2ccc(C)cc2)N(C)C(=O)[C@@H]2CCN2C(=O)CN(C)C1=O [Compound 1394] (cyclo([Aze][NMePhe(4-Me)][dNMeA][hPhe(3-Cl-4-CF3)]L[NMeAib]L[NMedβ3hAla][NMeL]I[Sar])) | 130
13 | CC[C@H](C)[C@@H]1NC(=O)[C@H](CC(C)C)N(C)C(=O)C[C@@H](C)N(C)C(=O)[C@H](CC(C)C)NC(=O)C(C)(C)N(C)C(=O)[C@H](CC(C)C)NC(=O)[C@H](CCc2ccc(C(F)(F)F)c(Cl)c2)NC(=O)[C@@H](C)N(C)C(=O)[C@H](Cc2ccc(C(F)(F)F)cc2)N(C)C(=O)[C@@H]2CCN2C(=O)CN(C)C1=O [Compound 1395] (cyclo([Aze][NMePhe(4-CF3)][dNMeA][hPhe(3-Cl-4-CF3)]L[NMeAib]L[NMedβ3hAla][NMeL]I[Sar])) | 270
14 | CC[C@H](C)[C@@H]1NC(=O)[C@H](C)N(C)C(=O)C[C@@H](C)N(C)C(=O)[C@H](CC(C)C)NC(=O)C(C)(C)N(C)C(=O)[C@H](CC(C)C)NC(=O)[C@H](CCc2ccc(C(F)(F)F)c(Cl)c2)NC(=O)CN(C)C(=O)[C@H](Cc2ccc(C(F)(F)F)cc2)N(C)C(=O)[C@@H]2CCN2C(=O)[C@H](C)N(C)C1=O [Compound 1399] (cyclo([Aze][NMePhe(4-CF3)][Sar][hPhe(3-Cl-4-CF3)]L[NMeAib]L[NMedβ3hAla][NMeA]I[NMeA])) | 70
15 | CC[C@H](C)[C@@H]1NC(=O)[C@H](CC(C)C)N(C)C(=O)C[C@@H](C)N(C)C(=O)[C@H](CC(C)C)NC(=O)C(C)(C)N(C)C(=O)[C@H](CC(C)C)NC(=O)[C@H](CCc2ccc(C(F)(F)F)c(Cl)c2)NC(=O)[C@@H](C)N(C)C(=O)[C@H](CC2CCCCC2)N(C)C(=O)[C@@H]2CCN2C(=O)CN(C)C1=O [Compound 1400] (cyclo([Aze][NMeCha][dNMeA][hPhe(3-Cl-4-CF3)]L[NMeAib]L[NMedβ3hAla][NMeL]I[Sar])) | 210
16 | CC[C@H](C)[C@@H]1NC(=O)[C@H](CC(C)C)N(C)C(=O)C[C@@H](C)N(C)C(=O)[C@H](CC(C)C)NC(=O)C(C)(C)N(C)C(=O)[C@H](CC(C)C)NC(=O)[C@H](CCc2ccc(C(F)(F)F)c(Cl)c2)NC(=O)CN(C)C(=O)[C@H](Cc2ccc(C(F)(F)F)cc2)N(C)C(=O)[C@@H]2CCN2C(=O)[C@H](C)N(C)C1=O [Compound 1401] (cyclo([Aze][NMePhe(4-CF3)][Sar][hPhe(3-Cl-4-CF3)]L[NMeAib]L[NMedβ3hAla][NMeL]I[NMeA])) | 120
17 | CC[C@H](C)[C@@H]1NC(=O)[C@H](C)N(C)C(=O)C[C@@H](C)N(C)C(=O)[C@H](CC(C)C)NC(=O)C(C)(C)N(C)C(=O)[C@H](CC(C)C)NC(=O)[C@H](CCc2ccc(C(F)(F)F)c(Cl)c2)NC(=O)CN(C)C(=O)[C@H](Cc2ccc(C)cc2)N(C)C(=O)[C@@H]2CCN2C(=O)[C@H](C)N(C)C1=O [Compound 1402] (cyclo([Aze][NMePhe(4-Me)][Sar][hPhe(3-Cl-4-CF3)]L[NMeAib]L[NMedβ3hAla][NMeA]I[NMeA])) | 57
18 | CC[C@H](C)[C@@H]1NC(=O)[C@H](CC(C)C)N(C)C(=O)C[C@@H](C)N(C)C(=O)[C@H](CC(C)C)NC(=O)C(C)(C)N(C)C(=O)[C@H](CC(C)C)NC(=O)[C@H](CCc2ccc(C(F)(F)F)c(Cl)c2)NC(=O)CN(C)C(=O)[C@H](Cc2ccc(C(F)(F)F)cc2)N(C)C(=O)[C@@H]2CCN2C(=O)CN(C)C1=O [Compound 1403] (cyclo([Aze][NMePhe(4-CF3)][Sar][hPhe(3-Cl-4-CF3)]L[NMeAib]L[NMedβ3hAla][NMeL]I[Sar])) | 32
19 | CCCC[C@@H]1NC(=O)[C@H](Cc2cccc(Br)c2)NC(=O)CN(C)C(=O)[C@H](Cc2ccc(Cl)cc2)N(C)C(=O)CN(C)C(=O)CN(C)C(=O)[C@H]([C@@H](C)CC)NC(=O)[C@H](CC(C)C)N(C)C(=O)C[C@@H](C(=O)N2CCCCC2)N(C)C(=O)[C@H](CC(C)C)NC(=O)C(C)(C)N(C)C1=O [Compound 1404] ([NMeL]I[Sar][Sar][NMePhe(4-Cl)][Sar][Phe(3-Br)][Nle][NMeAib]L[NMeD]-Piperidide; lactam N-11) | 17
